Data as given in article PMC6946680, “Modulation of brain cation-Cl^− cotransport via the SPAK kinase inhibitor ZT-1a” (Nature Communications, 2020).
“And” between values parts separate entries of the source, which are not always exact repeats. Equal values may be shown once.

Legend:
KCC4 pThr926/pThr980 = assay: Choroid plexus KCC4 phospho-IP/immunoblot in rat IVH model; format: in vivo
SPAK–WNK1 interaction = system: T1, SPAK–WNK1 interaction; assay: SPAK antibody pull-down / co-immunoprecipitation of WNK1 from HEK-293 cell lysates; format: binding, human; conditions: for WNK1 co-immunoprecipitated with SPAK (band quantification): Fig S6
T1 construct: endogenous in cells; host or cells: HEK-293
Experimental: Supplemental Fig. 6 Evidence that SPAK associates with WNK1, and interaction is disrupted by ZT-1a and its analogs. Non-transfected HEK293 cell lysates were incubated with the RFQV peptide […]
ZT-1a for 30 min on ice and subjected to SPAK antibody immunoprecipitation. Immunoprecipitates were subjected to immunoblot probed with antibody to total WNK1 and antibody to total SPAK. Left panels: representative immunoblots. Right panels, summarized data quantitated by densitometry (n=3, means ± SEM; **,

[1] = system: mouse model of ischemic stroke (tMCAO); assay: Adhesive-removal test after tMCAO; format: in vivo; conditions: for Adhesive removal time: Fig 7c, individual mice #1-#7
KCC3 = assay: 86Rb+ uptake assay for KCC3 activity in HEK-293 cells; format: cell-based, human; parameters: key to 86Rb+ uptake: 86Rb+ uptake CPM normalized per mg protein (10-min uptake); conditions: for 86Rb+ uptake: replicates
Experimental: ^86Rb^+ flux assays have been utilized extensively as a reliable measurement of cation chloride cotransporter activity[51]–[54].
(§1) Thirty-six hours post transfection, cells were exposed for 30 min to either control isotonic conditions or hypotonic low [Cl^−] conditions (to activate the SPAK/OSR1 pathway), and then treated for an additional 30 min in the same conditions with the indicated ZT-1a concentrations in the presence of 1 mM ouabain and 0.1 mM bumetanide. Ten-minute ^86Rb^+ uptake values were quantified by scintillation counting, normalized per mg protein for each condition, and plotted for both isotonic and hypotonic conditions. ***p < 0.001; **p < 0.01; *p < 0.05; ns—nonsignificant [by one-way ANOVA with post hoc testing (n = 6, error bars represent the mean ± SEM)]. b ^86Rb^+ uptake assays in the presence of ZT-1a measure transport activity of NKCC1. […] Thirty-six hours post transfection, cells were exposed for 30 min to either control isotonic conditions or hypotonic low [Cl^−] conditions (to activate the SPAK/OSR1 pathway), and then treated in the same conditions for an additional 30 min with 10 µM ZT-1a or 0.1 mM bumetanide (Bum) in the presence of 1 mM ouabain (Na^+/K^+-ATPase inhibitor). ^86Rb^+ uptake was allowed to proceed for 10 min and was then quantified by scintillation counting. ^86Rb^+ uptake CPMs were normalized per mg protein and plotted for both isotonic and hypotonic conditions. […] Thirty-six hours post transfection, cells were exposed for 30 min to either control isotonic conditions or hypotonic low [Cl^−] conditions (to activate the SPAK/OSR1 pathway), and then treated for an additional 30 min in the same conditions with the indicated ZT-1a concentrations in the presence of 1 mM ouabain. Ten-minute ^86Rb^+ uptake values were quantified by scintillation counting, normalized per mg protein for each condition, and plotted for both isotonic and hypotonic conditions. ***p < 0.001; **p < 0.01; *p < 0.05; ns—nonsignificant [by one-way ANOVA with post hoc testing (n = 6, error bars represent the mean ± SEM)].
(§2) This stimulating medium was then removed and replaced with isotonic medium containing inhibitors plus 2 µCi/ml ^86Rb^+. After incubation for 10 min at 37 °C, cells were rapidly washed three times with the respective ice-cold nonradioactive medium. Washed cells were lysed in 300 µl of ice-cold lysis buffer and ^86Rb^+ uptake was quantitated by liquid scintillation counting (PerkinElmer).

SPAK pSer373 = assay: Choroid plexus SPAK/OSR1 immunoblot in rat post-hemorrhagic hydrocephalus (IVH) model; format: in vivo
HEK-293 cells = assay: 86Rb+ uptake assay in empty-vector-transfected HEK-293 cells; format: cell-based, human; parameters: key: 86Rb+ uptake in CPM per mg protein; conditions: Empty V + 1a (10 µM), replicates
Experimental: as §1, §2

NKCC1 pThr203/207/212 = assay: Choroid plexus NKCC1 immunoblot in rat IVH model; format: in vivo
[2] = rat CPe 48 h post IVH + 1a, replicates
[3] = rat, ICV ZT-1a, 48 h post IVH, n = 3

Compound: Cc1cc(C(C#N)c2ccc(Cl)cc2)c(Cl)cc1NC(=O)c1cc(Cl)ccc1O (stereo not shown) [ZT-1a, 5-chloro-N-(5-chloro-4-((4-chlorophenyl)(cyano)methyl)-2-methylphenyl)-2-hydroxybenzamide]
- KCC4 / Actin (KCC4 pThr926/pThr980; [2]): 2.09 and 2.11 and 2.1 and 2.05 and 2.15 and 2.12
- KCC4 pThr926 / Actin (KCC4 pThr926/pThr980; [2]): 0.241 and 0.354 and 0.43 and 0.261 and 0.376 and 0.487
- KCC4 pThr980 / Actin (KCC4 pThr926/pThr980; [2]): 0.279 and 0.426 and 0.524 and 0.299 and 0.447 and 0.541
- reduction of post-IVH KCC4 phosphorylation at Thr926/Thr980 (KCC4 pThr926/pThr980; rat CPe, ICV ZT-1a): ~ 2 fold
- WNK1 co-immunoprecipitated with SPAK (band quantification) (SPAK–WNK1 interaction; 10 uM): 0.445 and 0.402 and 0.4282 and 0.39
- WNK1 co-immunoprecipitated with SPAK (band quantification) (SPAK–WNK1 interaction; 30 uM): 0.176 and 0.186 and 0.196
- WNK1 co-immunoprecipitated with SPAK (band quantification) (SPAK–WNK1 interaction; 100 uM): 0.121 and 0.086 and 0.0911 and 0.105
- WNK1 co-immunoprecipitated with SPAK (band quantification) (SPAK–WNK1 interaction; 300 uM): 0.066 and 0.072 and 0.068 and 0.058
- WNK1 co-immunoprecipitated with SPAK (band quantification) (SPAK–WNK1 interaction; 1000 uM): 0.048 and 0.027 and 0.0332 and 0.031
- co-immunoprecipitation of WNK1 with SPAK (SPAK–WNK1 interaction; HEK-293 cell lysates, absence or presence of competitor peptide): abolished by ZT-1a more potently than by STOCK1S-50699 or by Closantel
- Adhesive removal time ([1]; Day 1): 15 seconds and 27 seconds and 70 seconds and 120 seconds and 28 seconds (2×) and 85 seconds
- Adhesive removal time ([1]; Day 3): 26 s and 16 s and 65 s and 29 s and 9 s and 41 s and 62 s
- Adhesive removal time ([1]; Day 5): 36 s and 27 s and 56 s and 35 s and 15 s and 28 s and 24 s
- Adhesive removal time ([1]; Day 7): 8 seconds (2×) and 14 seconds and 57 seconds and 19 seconds and 16 seconds and 28 seconds
- Adhesive removal time ([1]; Day -1 (baseline)): 25 seconds and 8 seconds and 7 seconds (2×) and 11 seconds and 13 seconds and 22 seconds
- adhesive contact and removal tests ([1]; ZT-1a 5.0 mg/kg, vs vehicle-control mice): significantly improved motor function
- activation of WT KCC3 (KCC) activity (KCC3; 86Rb+ flux, 10 µM ZT-1a, HEK-293): > 10.6 fold and > 10 fold
- 86Rb+ uptake (KCC3; Fig 3a right, KCC3 wt, ZT-1a 1 uM, Hypotonic low Cl-): 1990.9 and 1707.8 and 2071.9 and 2501.3 and 2188.7 and 2073.1
- 86Rb+ uptake (KCC3; Fig 3a right, KCC3 wt, ZT-1a 1 uM, Isotonic control): 3241.3 and 3419.1 and 2873.4 and 3612.8 and 2913.5 and 2519.3
- 86Rb+ uptake (KCC3; Fig 3a right, KCC3 wt, ZT-1a 3 uM, Hypotonic low Cl-): 4012.2 and 3271.9 and 4514.8 and 3888.6 and 3729.3 and 3910.5
- 86Rb+ uptake (KCC3; Fig 3a right, KCC3 wt, ZT-1a 3 uM, Isotonic control): 6755.1 and 6519.9 and 7018.4 and 6691.3 and 7512.7 and 6011.7
- 86Rb+ uptake (KCC3; Fig 3a right, KCC3 wt, ZT-1a 10 uM, Hypotonic low Cl-): 11981.4 and 10921.3 and 12650.2 and 11037.8 and 12144.8 and 9615.1
- 86Rb+ uptake (KCC3; Fig 3a right, KCC3 wt, ZT-1a 10 uM, Isotonic control): 17537.1 and 16129.4 and 18002.7 and 19588.5 and 17991.3 and 15002.2
- 86Rb+ uptake (KCC3; Fig 3a, KCC3 wt + 1a (10 µM), Hypotonic low Cl-): 12251.1 and 13980.5 and 10874.7 and 11830.4 and 14081.1 and 11229.7
- 86Rb+ uptake (KCC3; Fig 3a, KCC3 wt + 1a (10 µM), Isotonic control): 17623.6 and 19014.4 and 18719.8 and 19961.7 and 18001.8 and 17951.6
- SPAK / Actin (SPAK pSer373; [2]): 2.39 and 2.21 and 2.2 and 2.51 and 2.16 and 2.37
- SPAK pSer373 / Actin (SPAK pSer373; [2]): 0.69 and 0.85 and 1.13 and 0.73 and 0.89 and 1.07
- reduction of IVH-induced expression of pSPAK in CPe (SPAK pSer373; [3]): 55 ± 3.6%
- 86Rb+ uptake (HEK-293 cells; Fig 3a, Hypotonic low Cl-, ouabain + bumetanide): 508.8 and 600.6 and 529.6 and 455.1 and 564.1 and 478.5
- 86Rb+ uptake (HEK-293 cells; Fig 3a, Isotonic control, ouabain + bumetanide): 1279.7 and 1082.2 and 1111.5 and 1436.1 and 1321.4 and 1109.8
- 86Rb+ uptake (HEK-293 cells; Fig 3b, Hypotonic low Cl-, ouabain): 1181.7 and 899.6 and 1029.4 and 1120.4 and 1269.1 and 946.3
- 86Rb+ uptake (HEK-293 cells; Fig 3b, Isotonic control, ouabain): 905.2 and 735.8 and 874.1 and 801.5 and 957.4 and 886.4
- NKCC1 pThr203/207/212 / Actin (NKCC1 pThr203/207/212; [2]): 1.03 and 0.7 and 0.5 and 0.9 and 0.81 and 0.55
- reduction of IVH-induced expression of pNKCC1 in CPe (NKCC1 pThr203/207/212; [3]): 69 ± 4.3%
